Like-named read-outs stand apart in the source and are kept apart here.
Experiments:
Format in all cases: biochemical
heparin = assay: Neutralization of heparin in plasma by Polybrene in the FIFTA
Protocol: P-Pool supplemented with 0-80 IU/ml heparin was analyzed in the FIFTA. The FIFTA-reagent contained 200 mIU/ml thrombin, 6% BSA-PBS and 0, 50, 100, 200, 400, 800, or 1600 μg/ml Polybrene® (PB, hexadimethrinebromide).
25 μl 0-75 mg/ml Polybrene® in aqua dest. were added to 50 μl P-Pool or to 50 μl P-Pool, that had been supplemented with 100 IU/ml heparin. Then 100 μl 200 miU/ml thrombin in 6% BSA-PBS, 400 μg/ml PB were added and the increase in absorbance at 405 nm was determined.
50 μl P-Pool with 0-80 IU/ml heparin were incubated with 100 μl FIFTA-reagent without thrombin, that contained 0, 400, 800, or 1600 μg/ml PB. The increase in absorbance at 405 nm was determined.

thrombin = target: T1, thrombin (Bos taurus, UniProt P00735); assay: Inhibitory time point 50% (ITP50) of 10 IU/ml heparin-thrombin interaction; details: 133 mIU/ml thrombin, RT
T1 construct: 100 μl 200 mIU/ml thrombin in 6% BSA-PBS (without Polybrene®)
Protocol: 50 μl P-Pool were incubated with 100 μl 200 miU/ml thrombin in 6% BSA-PBS (without Polybrene®). At 0 min (prior to thrombin addition) and 0.5-11 min reaction time (at RT) 10 μl 160 IU/ml heparin in 6% BSA-PBS was added (final heparin conc. in plasma+thrombin reagent=10 IU/ml; this heparin conc. increased the absorbance by 20 mA; all test results were corrected by this heparin induced turbidity increase). The turbidity increase at 405 nm was determined immediately after each heparin addition step and as a function of incubation time.
To determine the heparin addition time point (at RT) that is needed to decrease the 5 min, 10 min, 15 min or 20 min turbidity increase by 50% (inhibitory time point 50%=ITP), 50 μl P-Pool were incubated with 100 μl 200 mIU/ml thrombin in 6% BSA-PBS (without Polybrene®). After 0 s (prior to thrombin addition) and 10-140 s (in 10 s intervals) 10 μl 160 IU/ml heparin in 6% BSA-PBS were added. The turbidity increase at 405 nm as a function of incubation time (3-20 min) was determined.

fibrinogen [1] = assay: FIATA (vancomycin reactivity) of chloramine-T oxidized / EDTA-supplemented plasma; details: EDTA at concentrations of 50-100 mM
Protocol: To 25 μl plasma 50 μl PBS are added and the absorbance (405 nm) is determined (base value). Then 50 μl 4.4 mM vancomycin in PBS are added. The absorbance at 405 nm is determined after 2 min, if the reaction is performed at room temperature (23° C.). If the reaction is performed at 37° C., the second value is determined after 1 min. A microtiterplate reader (Milenia, DPC, Los Angeles, USA) is used. The increase in absorption (ΔA) is determined and the results are standardized against a pooled plasma of known, preferably of 100% of norm, fibrinogen-concentration, and against 0.9% NaCl (zero-value of turbidity) (Table 2).
(§1) 25 μl P-Pool or P-Pool supplemented with 8.6 mM (3.2 g/l) EDTA were incubated with 25 μl 0-89 mM chloramine-T® in PBS for 60 min at RT. Then the FIATA and the FIFTA were performed. For the FIATA, 25 μl PBS were added and the absorbance at 405 nm was determined (base value). 50 μl 4.4 mM vancomycin in PBS were added and after 1 min (RT) the absorbance at 405 nm was determined again (Table 1). […] 100% control=P-Pool without oxidant.
(§2) 25 μl P-Pool was incubated with 25 μl PBS or with 25 μl 2 mM CT in PBS. After 60 min RT, 25 μl 0-172 mM EDTA in PBS was added. After 5 min RT the FIATA and the FIFTA were performed as indicated in 2.7.

fibrinogen [2] = target: T2, fibrinogen (Homo sapiens, UniProt P02671+P02675+P02679); assay: FIFTA of chloramine-T oxidized / EDTA-supplemented plasma
T2 construct: pooled patient plasma (P-Pool, n=32 single plasmas); from tissue; host or cells: pooled citrated patient plasma (P-Pool, Fbgen-Pool-Plasma)
T2 sequence (P02671 20-644 isoform P02671-2 limits assumed): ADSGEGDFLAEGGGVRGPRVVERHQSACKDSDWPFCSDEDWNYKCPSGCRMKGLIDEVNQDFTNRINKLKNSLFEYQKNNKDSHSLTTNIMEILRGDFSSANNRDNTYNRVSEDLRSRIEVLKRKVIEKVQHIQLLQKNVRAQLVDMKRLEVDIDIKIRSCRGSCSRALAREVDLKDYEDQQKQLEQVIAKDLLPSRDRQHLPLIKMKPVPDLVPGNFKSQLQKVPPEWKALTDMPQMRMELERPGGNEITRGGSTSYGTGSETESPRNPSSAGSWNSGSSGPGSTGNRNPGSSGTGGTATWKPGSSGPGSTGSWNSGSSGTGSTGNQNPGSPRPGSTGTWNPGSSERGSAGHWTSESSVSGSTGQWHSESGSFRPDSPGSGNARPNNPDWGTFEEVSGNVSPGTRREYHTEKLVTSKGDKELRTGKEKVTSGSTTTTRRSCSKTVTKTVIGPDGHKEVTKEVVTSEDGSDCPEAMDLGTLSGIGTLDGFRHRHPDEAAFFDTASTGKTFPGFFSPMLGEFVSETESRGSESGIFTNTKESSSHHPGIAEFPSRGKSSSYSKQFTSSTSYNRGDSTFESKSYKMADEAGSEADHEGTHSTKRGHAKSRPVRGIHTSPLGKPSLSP
T2 sequence (P02675 31-491): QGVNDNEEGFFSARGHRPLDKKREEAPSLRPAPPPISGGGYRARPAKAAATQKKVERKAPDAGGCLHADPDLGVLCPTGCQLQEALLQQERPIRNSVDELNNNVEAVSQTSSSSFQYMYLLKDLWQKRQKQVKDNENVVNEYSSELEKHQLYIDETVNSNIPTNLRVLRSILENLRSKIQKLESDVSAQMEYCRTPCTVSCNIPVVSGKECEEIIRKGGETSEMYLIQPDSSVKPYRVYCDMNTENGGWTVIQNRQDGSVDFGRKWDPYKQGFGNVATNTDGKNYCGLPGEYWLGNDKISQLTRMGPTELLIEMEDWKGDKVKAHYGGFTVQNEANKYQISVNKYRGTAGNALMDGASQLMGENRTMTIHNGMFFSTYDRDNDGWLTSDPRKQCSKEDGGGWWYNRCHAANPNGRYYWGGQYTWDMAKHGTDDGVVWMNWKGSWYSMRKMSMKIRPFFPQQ
T2 sequence (P02679 27-437 isoform P02679-2 limits assumed): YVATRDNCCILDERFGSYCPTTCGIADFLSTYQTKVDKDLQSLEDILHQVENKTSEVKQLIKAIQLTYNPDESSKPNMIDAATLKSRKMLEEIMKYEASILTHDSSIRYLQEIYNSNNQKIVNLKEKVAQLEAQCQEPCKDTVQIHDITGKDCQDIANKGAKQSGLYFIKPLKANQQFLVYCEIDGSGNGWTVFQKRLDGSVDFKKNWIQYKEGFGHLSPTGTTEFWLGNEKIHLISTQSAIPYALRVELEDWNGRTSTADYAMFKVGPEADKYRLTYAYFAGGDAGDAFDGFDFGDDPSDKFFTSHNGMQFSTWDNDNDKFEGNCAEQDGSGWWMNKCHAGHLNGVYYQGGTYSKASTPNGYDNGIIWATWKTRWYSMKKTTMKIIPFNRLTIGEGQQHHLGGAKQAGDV
Protocol: The absorption at 405 nm is immediately measured (base value) and exactly after 5 min, if the reaction is performed at room temperature (23° C.). If the reaction is performed at 37° C., the second value is measured after 2 min. A microtiterplate reader (Milenia, DPC, Los Angeles, USA) is used. The increase in absorption (ΔA) is determined and the results are standardized against a pooled plasma of known, preferably of 100% of norm, fibrinogen-activity (Table 1).
as §1, §2

[3] = system: thrombin/fibrinogen interaction; assay: Inhibition of fibrin generation by arginine (FIFTA turbidity); details: for IC50: read-out: arginine conc. at halfmaximal turbidity increase
Protocol: The turbidity increase was calculated by subtracting the basal absorbance from the absorbance generated by thrombin (addition of 100 μl FIFTA-reagent without thrombin results into an approximate increase of absorbance of 100 mA compared to the absorbance of 50 μl sample). c) 50 μl P-Pool were incubated with 100 μl FIFTA-reagent.

fibrin = target: T3, fibrin (Homo sapiens, UniProt P02671+P02675+P02679); assay: Fibrin dissolution by arginine
T3 construct: The FIFTA imitates the physiological conversion of fibrinogen to fibrin; from tissue; host or cells: pooled citrated patient plasma (P-Pool), clotted in the well with thrombin reagent for 30 min
T3 sequence (P02671 36-629 limits assumed): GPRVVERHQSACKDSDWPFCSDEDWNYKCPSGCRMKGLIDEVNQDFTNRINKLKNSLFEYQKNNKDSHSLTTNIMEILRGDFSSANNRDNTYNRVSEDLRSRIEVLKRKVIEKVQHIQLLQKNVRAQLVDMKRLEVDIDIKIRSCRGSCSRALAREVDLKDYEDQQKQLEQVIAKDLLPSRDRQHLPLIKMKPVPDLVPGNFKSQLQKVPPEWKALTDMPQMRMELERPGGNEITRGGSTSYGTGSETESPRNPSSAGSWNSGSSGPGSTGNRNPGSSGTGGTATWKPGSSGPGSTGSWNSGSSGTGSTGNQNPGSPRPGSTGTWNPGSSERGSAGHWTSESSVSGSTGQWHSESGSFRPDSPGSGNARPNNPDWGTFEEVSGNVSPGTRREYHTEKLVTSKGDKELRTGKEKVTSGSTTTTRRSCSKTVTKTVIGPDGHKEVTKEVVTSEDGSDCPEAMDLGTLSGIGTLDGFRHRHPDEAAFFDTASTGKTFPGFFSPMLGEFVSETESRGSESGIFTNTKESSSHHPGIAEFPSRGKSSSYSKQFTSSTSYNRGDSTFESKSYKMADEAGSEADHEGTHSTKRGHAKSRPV
T3 sequence (P02675 45-491 limits assumed): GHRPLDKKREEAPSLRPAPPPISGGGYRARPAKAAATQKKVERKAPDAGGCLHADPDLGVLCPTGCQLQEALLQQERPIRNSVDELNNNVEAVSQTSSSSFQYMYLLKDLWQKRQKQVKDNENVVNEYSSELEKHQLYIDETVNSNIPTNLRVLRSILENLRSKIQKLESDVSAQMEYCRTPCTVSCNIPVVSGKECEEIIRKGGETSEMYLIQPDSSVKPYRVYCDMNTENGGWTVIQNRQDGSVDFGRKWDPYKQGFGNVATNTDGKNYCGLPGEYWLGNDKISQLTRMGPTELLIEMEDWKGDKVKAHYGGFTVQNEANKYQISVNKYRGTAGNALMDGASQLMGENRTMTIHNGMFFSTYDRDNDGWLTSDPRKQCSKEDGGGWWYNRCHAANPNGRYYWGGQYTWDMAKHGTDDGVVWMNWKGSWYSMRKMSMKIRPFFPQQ
T3 sequence (P02679 27-437 isoform P02679-2 limits assumed): T2 sequence (P02679 27-437 isoform P02679-2 limits assumed)
Protocol: 50 μl P-Pool were incubated with 100 μl FIFTA-reagent.

## hexadimethrinebromide [Polybrene®]
heparin; 400 μg/ml Polybrene in FIFTA-reagent
  plasmatic heparin concentration neutralized: up to 20 IU/ml
heparin; 1 part PB, includes 400 μg/ml PB of FIFTA-reagent
  PB needed for neutralization of 1 part of 100 IU/ml heparinized plasma: 26 mg/mL
heparin; 25 μl PB added to 50 μl plasma
  PB concentration that completely antagonizes 100 IU/ml heparin: ≥ 50 mg/mL

## thrombin
thrombin
  time in which about 50% of plasmatic fibrinogen is converted: approximately 30 seconds

## O=C(O)CN(CCN(CC(=O)O)CC(=O)O)CC(=O)O [EDTA]
Fibrinogen [1]
  decrease of FIATA result: 10-20%
Fibrinogen [2]; EDTA at concentrations >5 mmol/l, 0 mM or 2 mM oxidized samples
  decrease of FIFTA activity: about 50%
Fibrinogen [2]; addition of 8.6 mM EDTA, independent of oxidant concentration
  FIFTA decrease: about 50%

## N=C(N)NCCC[C@H](N)C(=O)O [arginine]
[3]; 16 mM arginine
  increase of the turbidity increase: about 20%
[3]; arginine acts in the first 4 min (RT) of thrombin/fibrinogen interaction
  final arginine conc. that completely inhibits turbidity increase: ≥ 250 mM
[3]; final arginine conc. ≧250 mM, RT (FIG. 16d)
  time window in which arginine can inhibit turbidity increase: ≤ 3 min
[3]; added at the 7 min reaction time point
  IC50: 94 mM
[3]; arginine acts since the begin of thrombin action
  IC50: 62.5 mM
fibrin; 477 mM arginine added at 12 min or 30 min reaction time point, RT
  time to halfmaximal decrease of ΔA: 30 min
fibrin; arginine incubation >100 min
  maximal ΔA that remains refractory to clearing: about 30%
